Experimental data published in ChEMBL document CHEMBL3045639, “Evaluation of three diatomaceous earth and one natural pyrethrum formulations against pupae of Tribolium confusum DuVal (Coleoptera: Tenebrionidae) on wheat and flour” (2006).
The source made the active and inactive calls. The calls are words filed in the database; no cut-off is given here.

What was measured:
Sitophilus oryzae [1] = assay: Insecticidal activity against Sitophilus oryzae (rice weevil) infected wheat assessed as mortality at 0.75 ppm applied as spray after 48 hr in presence of diatomaceous earth; format: functional
Sitophilus oryzae [2] = assay: Insecticidal activity against Sitophilus oryzae (rice weevil) infected wheat assessed as mortality at 0.75 ppm applied as spray after 48 hr in absence of diatomaceous earth; format: functional
Sitophilus oryzae [3] = assay: Insecticidal activity against Sitophilus oryzae (rice weevil) infected wheat assessed as mortality at 0.125 to 0.75 ppm applied as spray after 24 hr in absence of diatomaceous earth; format: functional
Sitophilus oryzae [4] = assay: Insecticidal activity against Sitophilus oryzae (rice weevil) infected wheat assessed as decrease in progeny productionc at 0.125 to 0.75 ppm applied as spray after 60 days in presence of diatomaceous earth; format: functional, organism-based
Sitophilus oryzae [5] = assay: Insecticidal activity against Sitophilus oryzae (rice weevil) infected wheat assessed as decrease in progeny productionc at 0.125 to 0.75 ppm applied as spray after 60 days in absence of diatomaceous earth; format: functional, organism-based
Sitophilus oryzae [6] = assay: Insecticidal activity against Sitophilus oryzae (rice weevil) infected wheat assessed as increase in mortality at 0.125 to 0.25 ppm applied as spray after 14 days in presence of diatomaceous earth; format: functional, organism-based
Tribolium confusum [7] = assay: Insecticidal activity against Tribolium confusum (confused flour beetle) infected wheat assessed as increase in mortality at 0.125 ppm applied as spray after 14 days in absence of diatomaceous earth; format: functional; details: 336 h
Tribolium confusum [8] = assay: Insecticidal activity against Tribolium confusum (confused flour beetle) infected wheat assessed as increase in mortality at 0.25 to 0.75 ppm applied as spray after 14 days in absence of diatomaceous earth; format: functional
Tribolium confusum [9] = assay: Insecticidal activity against Tribolium confusum (confused flour beetle) infected wheat assessed as increase in mortality at 0.125 to 0.75 ppm applied as spray after 7 days in absence of diatomaceous earth; format: functional, organism-based
Tribolium confusum [10] = assay: Insecticidal activity against Tribolium confusum (confused flour beetle) infected wheat assessed as increase in mortality at 0.125 to 0.75 ppm applied as spray after 48 hr in presence of diatomaceous earth; format: functional, organism-based
Tribolium confusum [11] = assay: Insecticidal activity against Tribolium confusum (confused flour beetle) infected wheat assessed as increase in mortality at 0.125 to 0.75 ppm applied as spray after 24 hr in absence of diatomaceous earth; format: functional, organism-based
Sitophilus oryzae [12] = assay: Insecticidal activity against Sitophilus oryzae (rice weevil) infected wheat assessed as increase in mortality at 0.75 ppm applied as spray after 14 days in presence of diatomaceous earth; format: functional, organism-based
Sitophilus oryzae [13] = assay: Insecticidal activity against Sitophilus oryzae (rice weevil) infected wheat assessed as increase in mortality at 0.75 ppm applied as spray after 14 days in absence of diatomaceous earth; format: functional, organism-based
Sitophilus oryzae [14] = assay: Insecticidal activity against Sitophilus oryzae (rice weevil) infected wheat assessed as mortality at 0.75 ppm applied as spray after 7 days in absence of diatomaceous earth; format: functional; details: 168 h
Sitophilus oryzae [15] = assay: Insecticidal activity against Sitophilus oryzae (rice weevil) infected wheat assessed as increase in mortality at 0.125 ppm applied as spray after 7 days in absence of diatomaceous earth; format: functional, organism-based
Sitophilus oryzae [16] = assay: Insecticidal activity against Sitophilus oryzae (rice weevil) infected wheat assessed as increase in mortality at 0.125 to 0.25 ppm applied as spray after 48 hr in presence of diatomaceous earth; format: functional, organism-based

## CC1(C)C(C=C(Cl)Cl)C1C(=O)OC(C#N)c1ccc(F)c(Oc2ccccc2)c1 (stereo unspecified) [CYFLUTHRIN]
Sitophilus oryzae [1]
  mortality at 0.75 ppm: 79%
Sitophilus oryzae [2]
  mortality at 0.75 ppm: 79%
Sitophilus oryzae [3]
  mortality: 6%
Sitophilus oryzae [4]
  Activity: Active
Sitophilus oryzae [5]
  Activity: inactive
Sitophilus oryzae [6]
  Activity: Active
Tribolium confusum [7]
  mortality at 0.125 ppm: > 91%
Tribolium confusum [8]
  mortality: 100%
Tribolium confusum [9]
  Activity: Active
Tribolium confusum [10]
  Activity: Active
Tribolium confusum [11]
  Activity: Active
Sitophilus oryzae [12]
  Activity: Active
Sitophilus oryzae [13]
  Activity: Active
Sitophilus oryzae [14]
  mortality at 0.75 ppm: > 98%
Sitophilus oryzae [15]
  Activity: Active
Sitophilus oryzae [16]
  Activity: Active
